We go through one compound from ChEMBL document CHEMBL4819069, “Discovery of multifunctional anti-Alzheimer's agents with a unique mechanism of action including inhibition of the enzyme butyrylcholinesterase and γ-aminobutyric acid transporters” (Eur J Med Chem, 2021).

One data set has as its target Cytochrome P450 3A4 (Homo sapiens, UniProt P08684). Put plainly: Inhibition of CYP3A4 (unknown origin) at 10 uM. The data set is classed as ADME.
The target of data set [1] is Sodium- and chloride-dependent GABA transporter 1 (Mus musculus) (UniProt P31648). Put plainly: Inhibition of NO711 binding to mouse GAT1 expressed in HEK cell membranes at 100 uM incubated for 40 mins in presence of NO711 by LC-ESI-MS/MS analysis relative to control. As to conditions: Membrane.
In data set [2] the target is Cholinesterase (Equus caballus, UniProt P81908).
Chain of Cholinesterase (Equus caballus, UniProt P81908) (P81908 whole entry): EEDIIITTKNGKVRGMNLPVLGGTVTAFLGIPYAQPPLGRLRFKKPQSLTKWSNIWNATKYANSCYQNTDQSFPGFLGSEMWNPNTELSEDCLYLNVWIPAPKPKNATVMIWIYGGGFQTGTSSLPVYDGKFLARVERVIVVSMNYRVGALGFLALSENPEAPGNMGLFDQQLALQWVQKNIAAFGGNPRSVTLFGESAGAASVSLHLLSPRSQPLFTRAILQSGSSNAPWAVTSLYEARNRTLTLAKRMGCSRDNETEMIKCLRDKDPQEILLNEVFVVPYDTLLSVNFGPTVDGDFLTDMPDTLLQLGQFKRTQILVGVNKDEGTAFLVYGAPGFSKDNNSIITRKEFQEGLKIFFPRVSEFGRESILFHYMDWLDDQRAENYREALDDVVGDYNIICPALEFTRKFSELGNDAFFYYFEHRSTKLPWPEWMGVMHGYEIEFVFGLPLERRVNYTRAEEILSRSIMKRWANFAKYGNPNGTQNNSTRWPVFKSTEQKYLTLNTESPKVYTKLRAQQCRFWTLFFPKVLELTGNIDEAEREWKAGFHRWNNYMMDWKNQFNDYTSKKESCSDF
Description: Inhibition of equine serum BuChE using butyrylthiocholine as substrate preincubated for 5 mins followed by substrate addition and measured after 5 mins by Ellman's method
Data set [3] can be described thus: Metabolic stability in human liver microsomes assessed as parent compound remaining after 120 mins in presence of NADPH regeneration system by UPLC/MS anlaysis. Format: ADME, Microsome. As to conditions: read-out: Stabilty.
Data set [4] addresses Cholinesterase (Equus caballus) (UniProt P81908). The data set can be described thus: Noncompetitive inhibition of equine serum BuChE assessed as decrease in Vmax with constant Km using varying concentrations of BTC as substrate by Lineweaver-burk and Cornish-Bowden plot analysis.
The target of data set [5] is T1, GABA transporter 4 (Mus musculus) (UniProt P31650).
T1 sequence (whole entry): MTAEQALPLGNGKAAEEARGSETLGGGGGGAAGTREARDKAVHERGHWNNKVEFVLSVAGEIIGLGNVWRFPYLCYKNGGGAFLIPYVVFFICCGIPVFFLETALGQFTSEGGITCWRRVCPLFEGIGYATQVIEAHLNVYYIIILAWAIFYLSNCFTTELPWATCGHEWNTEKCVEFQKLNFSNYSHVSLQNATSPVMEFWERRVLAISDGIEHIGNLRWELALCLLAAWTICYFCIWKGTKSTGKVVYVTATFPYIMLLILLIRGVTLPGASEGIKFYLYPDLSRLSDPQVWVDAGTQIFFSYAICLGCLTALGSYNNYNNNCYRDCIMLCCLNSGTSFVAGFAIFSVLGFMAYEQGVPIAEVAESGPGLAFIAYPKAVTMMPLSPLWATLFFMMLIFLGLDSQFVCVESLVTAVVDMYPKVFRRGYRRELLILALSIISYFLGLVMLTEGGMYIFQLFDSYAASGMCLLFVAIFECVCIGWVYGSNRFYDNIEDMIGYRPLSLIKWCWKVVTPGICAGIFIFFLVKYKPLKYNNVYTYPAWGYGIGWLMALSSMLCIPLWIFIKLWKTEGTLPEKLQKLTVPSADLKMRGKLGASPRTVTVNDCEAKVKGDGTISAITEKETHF
Put plainly: Inhibition of mouse GAT3 expressed in HEK293 cell line assessed as reduction in [3H]GABA uptake at 100 uM incubated for 10 mins relative to control. The data set is classed as cell-based.

The nature of data set [6]: Hepatotoxicity in human HepG2 cells at 1 uM incubated for 72 hrs by MTS assay. Format: cell-based. The settings on record: hepg2, 72 h. For orientation: Tetrazolium assays rely on reduction of a dye to a coloured formazan, in cell work by metabolically active cells.
The target of the next data set is Beta-secretase 1 (Homo sapiens, UniProt P56817). As to conditions: dose 50.0 µM, time 60.0 min.
Chain of Beta-secretase 1 (P56817 whole entry): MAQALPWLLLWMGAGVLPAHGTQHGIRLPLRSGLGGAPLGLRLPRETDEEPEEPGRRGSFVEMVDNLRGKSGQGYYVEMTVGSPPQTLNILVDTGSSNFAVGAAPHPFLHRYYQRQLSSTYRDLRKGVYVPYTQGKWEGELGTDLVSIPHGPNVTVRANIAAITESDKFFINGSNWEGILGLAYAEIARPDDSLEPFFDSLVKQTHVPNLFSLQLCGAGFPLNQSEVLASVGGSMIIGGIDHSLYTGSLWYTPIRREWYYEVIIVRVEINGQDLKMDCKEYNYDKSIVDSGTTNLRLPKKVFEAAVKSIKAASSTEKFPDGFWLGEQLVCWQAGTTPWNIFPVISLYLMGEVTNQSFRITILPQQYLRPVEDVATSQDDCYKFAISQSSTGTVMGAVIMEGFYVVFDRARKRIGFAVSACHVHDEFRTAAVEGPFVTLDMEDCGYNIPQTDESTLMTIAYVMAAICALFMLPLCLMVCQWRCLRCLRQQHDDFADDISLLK
Data set [7] in a line: Hepatotoxicity in human HepG2 cells at 10 uM incubated for 72 hrs by MTS assay. The data set is classed as cell-based. The settings on record: hepg2, 72 h.
A short description of data set [8]: Neurotoxicity against mouse HT22 cells assessed as cell viability at 30 uM incubated for 24 hrs by MTT assay. Format: cell-based, HT-22. As to conditions: ht-22, 24 h, 30 µM.
A short description of data set [9]: Neurotoxicity against mouse HT22 cells assessed as cell viability at 10 uM incubated for 24 hrs by MTT assay. The settings on record: ht-22, 24 h, 10 µM. Format: cell-based, HT-22.
Data set [10] has as its target Acetylcholinesterase (Electrophorus electricus) (UniProt O42275). The data set can be described thus: Inhibition of electric eel AChE at 10 uM using acetylthiocholine as substrate preincubated for 5 mins followed by substrate addition and measured after 5 mins by Ellman's method relative to control. As to conditions: time 10.0 min. A general note: In Ellman's method for cholinesterases, released thiocholine reacts with DTNB.

Another data set concerns the target T2, GABA transporter 4 (Mus musculus, UniProt P31650).
T2 sequence (P31650 whole entry): T1 sequence (whole entry)
Put plainly: Inhibition of mouse GAT4 expressed in HEK293 cell line assessed as reduction in [3H]GABA uptake incubated for 10 mins. Format: cell-based.

Data set [11] can be described thus: Hepatotoxicity in human HepG2 cells at 50 to 100 uM incubated for 72 hrs by MTS assay. The data set is classed as cell-based. As to conditions: hepg2, 72 h, dose 50-100 µM.
Data set [12] addresses Amyloid-beta precursor protein (Homo sapiens) (UniProt P05067). The data set can be described thus: Inhibition of HFIP-pretreated amyloid beta (1 to 42) (unknown origin) aggregation at 10 uM after 36 to 48 hrs by thioflavin-T fluorescence assay relative to control. The settings on record: time 36-48 hrs.
In data set [13] the target is Sodium- and chloride-dependent GABA transporter 1 (Mus musculus, UniProt P31648). Put plainly: Inhibition of mouse GAT1 expressed in HEK293 cell line assessed as reduction in [3H]GABA uptake incubated for 10 mins. The data set is classed as cell-based.
For a further data set, the target named is Cytochrome P450 2D6 (Homo sapiens, UniProt P10635). The data set can be described thus: Inhibition of CYP2D6 (unknown origin) at 10 uM. The data set is classed as ADME.
Chain of Cytochrome P450 2D6 (P10635 whole entry): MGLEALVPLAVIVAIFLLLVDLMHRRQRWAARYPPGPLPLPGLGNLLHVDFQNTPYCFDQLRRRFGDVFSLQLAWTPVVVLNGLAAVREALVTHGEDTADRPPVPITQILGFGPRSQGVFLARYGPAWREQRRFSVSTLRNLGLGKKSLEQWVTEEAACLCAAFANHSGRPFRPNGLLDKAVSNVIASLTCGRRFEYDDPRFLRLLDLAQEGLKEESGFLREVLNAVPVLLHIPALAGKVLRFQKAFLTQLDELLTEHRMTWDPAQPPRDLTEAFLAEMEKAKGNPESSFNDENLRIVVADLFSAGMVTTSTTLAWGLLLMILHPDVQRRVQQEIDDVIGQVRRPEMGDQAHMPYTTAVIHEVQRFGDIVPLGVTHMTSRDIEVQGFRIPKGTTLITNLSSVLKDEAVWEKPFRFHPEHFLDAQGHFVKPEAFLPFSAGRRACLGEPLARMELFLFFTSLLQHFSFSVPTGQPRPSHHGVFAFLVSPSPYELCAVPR
Data set [14] deals with Cholinesterase (Homo sapiens, UniProt P06276).
Description: Inhibition of human BuchE using butyrylthiocholine as substrate preincubated for 5 mins followed by substrate addition and measured after 5 mins by Ellman's method

pIC50: −log10 of the molar value. Activity calls are given as the source filed them. The rule behind the calls is not given here.

Chain of Cytochrome P450 3A4 (P08684 whole entry): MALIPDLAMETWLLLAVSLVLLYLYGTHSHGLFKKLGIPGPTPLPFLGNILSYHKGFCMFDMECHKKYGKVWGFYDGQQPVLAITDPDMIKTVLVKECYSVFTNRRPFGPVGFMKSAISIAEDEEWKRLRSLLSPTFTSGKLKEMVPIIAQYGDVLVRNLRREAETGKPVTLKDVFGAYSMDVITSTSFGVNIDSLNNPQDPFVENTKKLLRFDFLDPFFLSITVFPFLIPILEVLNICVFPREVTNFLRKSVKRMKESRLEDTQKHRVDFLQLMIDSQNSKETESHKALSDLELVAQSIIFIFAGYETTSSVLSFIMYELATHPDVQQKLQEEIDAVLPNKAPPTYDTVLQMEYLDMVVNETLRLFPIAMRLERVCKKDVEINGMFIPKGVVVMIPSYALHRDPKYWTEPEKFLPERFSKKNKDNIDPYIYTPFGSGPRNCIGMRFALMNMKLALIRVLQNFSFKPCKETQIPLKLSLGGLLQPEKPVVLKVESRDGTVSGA
Chain of Amyloid-beta precursor protein (Homo sapiens) (P05067 whole entry): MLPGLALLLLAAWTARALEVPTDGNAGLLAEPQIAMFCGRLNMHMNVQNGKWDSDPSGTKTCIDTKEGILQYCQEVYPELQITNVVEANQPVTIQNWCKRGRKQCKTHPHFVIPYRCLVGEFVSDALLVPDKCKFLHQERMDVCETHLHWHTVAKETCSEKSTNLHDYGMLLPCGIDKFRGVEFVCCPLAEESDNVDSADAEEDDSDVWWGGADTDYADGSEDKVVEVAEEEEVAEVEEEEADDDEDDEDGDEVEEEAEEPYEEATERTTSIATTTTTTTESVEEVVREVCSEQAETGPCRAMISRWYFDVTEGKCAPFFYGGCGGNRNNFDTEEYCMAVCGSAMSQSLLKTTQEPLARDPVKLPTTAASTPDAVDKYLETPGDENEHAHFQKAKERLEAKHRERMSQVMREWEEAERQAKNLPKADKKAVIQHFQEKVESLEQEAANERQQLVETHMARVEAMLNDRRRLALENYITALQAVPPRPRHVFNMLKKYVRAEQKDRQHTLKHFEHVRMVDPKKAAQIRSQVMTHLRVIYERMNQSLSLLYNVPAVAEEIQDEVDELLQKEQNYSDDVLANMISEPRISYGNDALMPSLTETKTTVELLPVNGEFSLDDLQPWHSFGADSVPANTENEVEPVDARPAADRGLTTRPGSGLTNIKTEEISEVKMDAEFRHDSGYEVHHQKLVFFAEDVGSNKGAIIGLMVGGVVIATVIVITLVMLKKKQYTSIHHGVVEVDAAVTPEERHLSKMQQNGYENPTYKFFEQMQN
Chain of Cholinesterase (Equus caballus) (P81908 whole entry): as the sequence (P81908 whole entry) above
Chain of Acetylcholinesterase (Electrophorus electricus) (O42275 24-633 limits assumed): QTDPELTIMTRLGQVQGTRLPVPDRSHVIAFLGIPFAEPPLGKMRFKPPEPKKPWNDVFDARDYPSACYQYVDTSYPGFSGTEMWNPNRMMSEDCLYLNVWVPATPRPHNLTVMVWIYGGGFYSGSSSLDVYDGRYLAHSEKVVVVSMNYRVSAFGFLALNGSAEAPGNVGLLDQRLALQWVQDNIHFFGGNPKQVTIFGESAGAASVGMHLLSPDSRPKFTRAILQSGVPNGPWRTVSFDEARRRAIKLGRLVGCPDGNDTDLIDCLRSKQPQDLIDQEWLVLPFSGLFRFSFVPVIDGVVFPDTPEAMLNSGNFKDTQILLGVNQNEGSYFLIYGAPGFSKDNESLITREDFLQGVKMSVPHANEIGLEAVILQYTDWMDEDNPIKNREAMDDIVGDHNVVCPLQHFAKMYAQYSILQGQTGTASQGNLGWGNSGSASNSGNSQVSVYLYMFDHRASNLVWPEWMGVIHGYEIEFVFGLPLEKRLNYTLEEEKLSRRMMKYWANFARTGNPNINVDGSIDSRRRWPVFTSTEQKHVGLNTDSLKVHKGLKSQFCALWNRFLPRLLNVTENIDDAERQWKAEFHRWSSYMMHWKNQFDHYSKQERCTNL

For `CC(C)(C)CNC[C@@H](O)[C@H](Cc1ccccc1)NC(=O)C(c1ccccc1)c1ccccc1`, the “inhibition (INH)” value against Cytochrome P450 3A4 and against Cytochrome P450 2D6 was “Active” throughout. Moreover, the inhibition (commonly how much of the control response was suppressed) in [1] was 71%; in data set [5], 54%; against Beta-secretase 1, 40%; in data set [10], under 10%; in data set [12], 20.5%. Besides, the pIC50 (in general, the IC50 on a negative log10 scale, so that one unit is a factor of ten) was 7.00 against Cholinesterase [2], 4.51 at GABA transporter 4, 4.60 in data set [13] and 6.35 on Cholinesterase [14]. Further, the remaining at 2 h in data set [3] came to 79.2%. Further, the inhibition result in [4] was “Active”. Besides, the Activity result is given as “Non-Toxic” in data set [6]; “Non-Toxic” in data set [7]; “Toxic” in [8]; “Non-Toxic” in data set [9]; “Toxic” in [11].
